Consider two molecules from patent publication US11633383B2, “Dosage principle for drugs useful for treating neoplastic diseases” (Basilea Pharmaceutica International AG, priority 2017, dated 2023).

As a reminder, the AUC is the area under the concentration-time curve, a measure of exposure. High values mean more exposure, low ones less exposure.

The nature of series [1]: Blood pressure measurements in patients treated with BAL101553. The series is classed as in vivo, human. The settings on record: cycle 1 day 1. The method, then: On day 1 of cycle 1 of the 2-hour and 48-hour intravenous infusion studies systolic and diastolic blood pressures were measured using a calibrated, automated blood pressure device at various time points, i.e. prior to the first administration of study drug and then at least hourly for the first 4 hours after start of dosing.

The nature of series [2]: Clinical trials of BAL101553: maximum tolerated dose and adverse drug reactions. The series is classed as in vivo, human. From the text: (§1) In one clinical trial BAL101553 (dihydrochloride salt) was given as a 2-hour infusion on days 1, 8, and 15 of each 28-day cycle (comparative Example).
(§2) In another clinical trial BAL101553 (dihydrochloride salt) was given as a 48-hour infusion on days 1, 8 and 15 of each 28 day cycle.
(§3) In another clinical trial BAL101553 (dihydrochloride salt) was given as a daily oral administration in treatment cycles consisting of 28 days of continuous, daily administration to patients in a fasted state (comparative Example).
(§4) BAL101553 (dihydrochloride salt) for intravenous administration is prepared by reconstitution of lyophilized BAL101553 (dihydrochloride salt) with saline solution or Ringer lactate solution, prior to further dilution with Ringer lactate for intravenous infusion to the patient. The 48-hour infusion is administered via an elastomeric pump (Baxter) using an infusion volume of 120 ml or 240 ml.
(§5) BAL101553 (dihydrochloride salt) for oral administration is prepared as a HPMC capsules containing 1 mg active ingredient, 98 mg of mannitol and 1 mg magnesium stearate, or 5 mg active ingredient, 94 mg mannitol and 1 mg magnesium stearate.

The test system of a further series is tumour. Put plainly: Clinical trials of BAL101553: tumour response. It is filed as in vivo, human.
Excerpt: as §2, §3

The conditions of series [3]: cited from earlier work.
The conditions of series [4]: cited from earlier work. The source holds these as a separate data set.
A short description of series [5]: Plasma concentrations of BAL27862 (Cmax, AUC) in patients, 2-hour intravenous infusion study. To be noted: mean. It is filed as in vivo, human. The method, then: as §1, §4
2-hour intravenous infusion study: on day 1 of cycle 1 blood samples were collected at pre-dose and where clinically feasible 0.5, 1, 2, 3, 4, 6, 8 and 24 hours after dosing.
(§6) Venous blood samples were collected into chilled 2 ml plastic tubes containing K2-EDTA as an anticoagulant mixed with 20 μl 2M citric acid and kept on ice for 15 minutes. Approximately 1.0 ml plasma was prepared by centrifugation at 1′500×g for 10-15 minutes at 4° C., transferred into new vials and stored at −80° C. until analysis. Plasma concentrations of BAL27862 were determined with a fully validated LC-MS/MS method:
(§7) 50 μl of acetonitrile was added to 25 μl plasma containing stable labelled internal standards (IS). After vortexing, the samples were centrifuged for 10 minutes at 50′000×g at 8° C. and 50 μl of the supernatant was transferred to an empty auto-sampler vial. The extract was separated by liquid chromatography, performed using water (0.1% formic acid) as mobile phase A and acetonitrile (0.1% formic acid) as mobile phase B. The column used was a YMC Hydroshere C18, 2.1×33 mm, 3 μm (YMC Co, Kyoto, Japan). The injection volume was set to 2 μL (full loop).
(§8) Detection was carried out using a triple-stage quadrupole MS/MS (TSQ Vantage, Thermo Fisher
(§9) Scientific, San Jose, Calif., USA) in the selected reaction monitoring mode.
(§10) The following calibration range was applied:
(§11) 1 to 1000 ng/ml for BAL27862 in human plasma ([…], citric acid)
(§12) Calculation of Pharmacokinetic Parameters (exposure [Area Under the Curve—AUC] and peak [Cmax] drug levels) for Human Samples:
(§13) AUC and Cmax of BAL27862 were calculated by non-compartmental analysis (NCA) using Phoenix WinNonLin 7.0 software from Certara.

The nature of series [6]: Plasma concentrations of BAL27862 (Cmax, AUC) in patients, daily oral administration study. The series is classed as in vivo. To be noted: human, BAL101553 dihydrochloride daily oral, N=7; for AUC: plasma, BAL27862, compared as weekly exposure; for Cmax: BAL27862 in plasma. The method, then:
as §3, §5
Daily oral administration study: on day 1 of cycle 1 blood samples were collected at pre-dose and where clinically feasible 0.5, 1, 2, 3, 4, 6, 8 and 24 hours after intake of study medication.
as §6, §7, §8, §9, §10, §11, §12, §13

The nature of series [7]: Plasma concentrations of BAL27862 (Cmax, AUC) in patients, 48-hour intravenous infusion study. It is filed as in vivo, human. The settings on record: for AUClast / Cmax: BAL27862 in plasma; for AUC: plasma, BAL27862, compared as weekly exposure. The method, then:
as §2, §4
48-hour intravenous infusion study: on day 1 of cycle 1 blood samples were collected at pre-dose and where clinically feasible 0.5, 1, 2, 4, 8, 24, 30, 48, 52, 54, 72, and 168 hours after dosing.
as §6, §7, §8, §9, §10, §11, §12, §13

The mark [8] stands for this setting: 2-hour infusion on study days 1, 8 and 15, q28 days, 2016 ASCO poster.
The mark [9] stands for this setting: BAL101553 dihydrochloride 45 mg/m^2, 2 hours infusion, N=8, cycle 1 day 1.
The mark [10] stands for this setting: BAL101553 dihydrochloride 60 mg/m^2, 2 hours infusion, N=21, cycle 1 day 1.
The mark [11] stands for this setting: BAL101553 dihydrochloride 45 mg/m^2, 48 hours infusion, mean, N=3, cycle 1 day 1.
Where [12] appears, read: BAL101553 dihydrochloride 70 mg/m^2, 48 hours infusion, mean, N=4, cycle 1 day 1.
Setting [13] is: BAL101553 dihydrochloride 90 mg/m^2, 48 hours infusion, mean, N=4, cycle 1 day 1.

Take `N#CCCNc1nonc1-c1nc2ccccc2n1CC(=O)c1ccc(NC(=O)[C@@H](N)CCCCN)cc1` [BAL101553, (S)-2,6-Diamino-hexanoic acid [4-(2-{2-[4-(2-cyano-ethylamino)-furazan-3-yl]-benzoimidazol-1-yl}-acetyl)-phenyl]-amide]: the “change from baseline in systolic and diastolic blood pressure” value is on record as “neutral blood pressure profile or a minor average change from baseline” in series [1] (infused over 48 hours, 45 or 70 mg/m^2) and “distinct changes from baseline” in series [1] (infusion duration of 2 hours, 45 or 60 mg/m^2). For the same molecule, the “troponin elevation indicative of myocardial damage” value is reported as “Three patients” in series [2] (45 mg/m^2 or 60 mg/m^2, 2-hour infusion) and “not observed” in series [2] (45 mg/m^2 or 70 mg/m^2, 48-hour infusion). In addition, the “Grade 4 hyponatremia” value in series [2] (90 mg/m^2 (supra-MTD), 48-hour infusion regimen) is “no observation of Grade 4 hyponatremia”. Further, the “maximum tolerated dose (MTD)” value in series [2] (48-hour infusion on days 1, 8 and 15 of each 28 day cycle) is reported as 70 mg/m^2; in series [2] (daily oral administration, 28-day cycles, fasted state), 16 mg/day. The “Serious Grade 4 adverse drug reactions” value in series [2] (48-hour infusion, 70 mg/m^2, N=9) is recorded as “None”; in series [2] (48-hour infusion, 90 mg/m^2, N=4), “None”; in series [2] (daily oral, 16 mg, N=7), “None”; in series [2] (daily oral, 20 mg, N=7), 2 patients with. For the same molecule, the “serious Grade 4 hyponatremia” value in series [2] (daily oral dose of 20 mg/day (supra-MTD)) was 2 patients. Further, in the series on tumour (48-hour infusion regimen, MTD dose (70 mg/m^2)), the tumour response result is given as “partial tumour response in a patient”. Further, the objective responses entry with tumour (daily oral dose regimen, any dose) is “no objective responses were observed”. Besides, the myocardial ischemia result in series [3] (setting [8]) is recorded as “asymptomatic myocardial ischemia”. Besides, the “recommended phase 2 dose” value in series [3] (setting [8]) is 30 mg/m^2. Also, in series [3] (2-hour infusion, related to peak drug concentration (Cmax), 2016 ASCO poster), the vascular effects entry is given as “dose-dependent vascular effects that were dose-limiting”. Further, the MTD in series [3] (2-hour intravenous administration, phase I escalation study of WO2015/173341) is recorded as 60 mg/m^2. Moreover, in series [4], the water solubility result is reported as “highly water-soluble”.

As for `N#CCCNc1nonc1-c1nc2ccccc2n1CC(=O)c1ccc(N)cc1` [BAL27862, 3-(4-{1-[2-(4-Amino-phenyl)-2-oxo-ethyl]-1H-benzoimidazol-2-yl}-furazan-3-ylamino)-propionitrile], the AUClast in series [5] (setting [9]) is 4340 h*ng/m; in series [5] (setting [10]) it was 6040 h*ng/m; in series [7] (setting [11]) it was 3830 h*ng/m; in series [7] (setting [12]) it was 9030 h*ng/m; in series [7] (setting [13]) it was 12000 h*ng/m. Also, the Cmax in series [5] (setting [9]) was determined as 356 ng/m; in series [5] (setting [10]), 498 ng/m; in series [6] (16 mg) it was 131 ng/mL; in series [6] (20 mg) it was 134 ng/mL; in series [7] (setting [11]), 77.7 ng/m; in series [7] (setting [12]) it was 152 ng/m. Besides, the Cmax turned out to be 238 ng/m in series [7] (setting [13]); 148 ng/mL in series [7] (human, intravenous, BAL101553 dihydrochloride 48-hour infusion, 70 mg/m^2, N=9, read-out: Cmax (mean, ng/ml)); 238 ng/mL in series [7] (human, intravenous, BAL101553 dihydrochloride 48-hour infusion, 90 mg/m^2, N=4, read-out: Cmax (mean, ng/ml)). Besides, the AUC in series [6] (16 mg) worked out at 8400 ng·h/mL; in series [6] (20 mg), 12200 ng·h/mL; in series [7] (human, intravenous, BAL101553 dihydrochloride 48-hour infusion, 70 mg/m^2, N=9) it was 8580 ng·h/mL; in series [7] (human, intravenous, BAL101553 dihydrochloride 48-hour infusion, 90 mg/m^2, N=4), 13500 ng·h/mL. The “variability of pharmacokinetic exposure (AUC)” value in series [7] (48-hour dose regimen versus daily oral regimen) was “lower variability”.
